Test results published in patent US11331304B2, “YAP1 inhibitors and methods” (The Jackson Laboratory, priority 2016, dated 2022).
“Also recorded” adds a separate entry of the source.

What was measured:
[1] = test system: MED311 human patient-derived xenograft (PDX) SHH medulloblastoma cells; assay: VP treatment of primary cells from SHH subgroup PDX model; assay type: cell-based
Protocol: (§1) To test YAP function in human cells, primary cells from a SHH subgroup PDX model (MED311) were isolated and treated with VP.
(§2) Primary cells from spontaneous mouse medulloblastoma ([…];p53^−/− or FSMO;GFAPcre) and MED311 PDX model were isolated and cultured in serum-free stem cell medium (DMEM/F12, B27, pen/strep, bFGF9 10 nanograms per milliliter (ng/mL)), and EGF (20 ng/mL). Number of self-renewing stem cells in vitro were measured by plating single cells at a clonal density (<1 cell/μL) and counting spheres >100 μM 7 days later. To establish IC50 values, 3000 mouse medulloblastoma cells were plated in 96 wells and treated varying concentrations of verteporfin and new derivatives were synthesized, in triplicate, and viability was measured using Cell Titer Blue assay (Promega, Madison, Wis.) 3 days after drug treatment.

[2] = target: YAP:TEAD (Homo sapiens, UniProt P46937); settings: Liu-Chittenden et al. 2012; cited from earlier work
YAP:TEAD, sequence (P46937 whole entry): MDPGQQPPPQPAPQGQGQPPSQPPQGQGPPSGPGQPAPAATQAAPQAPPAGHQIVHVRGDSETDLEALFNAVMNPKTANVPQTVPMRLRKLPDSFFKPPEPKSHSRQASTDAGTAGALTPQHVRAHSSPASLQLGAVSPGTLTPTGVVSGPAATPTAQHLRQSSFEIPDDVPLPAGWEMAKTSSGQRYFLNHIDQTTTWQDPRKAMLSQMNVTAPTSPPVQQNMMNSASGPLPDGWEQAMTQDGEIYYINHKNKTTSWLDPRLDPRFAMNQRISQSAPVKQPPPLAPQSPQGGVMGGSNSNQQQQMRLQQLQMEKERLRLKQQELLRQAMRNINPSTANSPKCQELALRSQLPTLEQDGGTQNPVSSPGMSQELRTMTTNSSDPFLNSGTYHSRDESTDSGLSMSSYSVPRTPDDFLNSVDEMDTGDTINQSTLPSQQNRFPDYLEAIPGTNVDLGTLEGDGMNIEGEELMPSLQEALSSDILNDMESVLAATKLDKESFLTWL

[3] = test system: Ptch;p53 and Smo-M2;GFAP-cre medulloblastoma cells; assay: Self-renewal (sphere formation at clonal density) of SHH medulloblastoma tumorspheres; assay type: cell-based, mouse; settings: for suppression of self-renewal: Ptch;p53 and Smo-M2;GFAP-cre cells in vitro, n=3; for self-renewal (in words): in vitro
Protocol: as §1, §2

[4] = Solubility of verteporfin derivative compounds in water and buffer (pH = 2); assay type: physicochemical
[5] = test system: Smo-M2;GFAP-cre medulloblastoma tumor slices; assay: Tumor slice culture ex vivo, tissue viability by Cell Titer Blue; assay type: cell-based, mouse
Protocol: Fresh tumor tissues were dissected and cut into 250 micrometer (μm) thick slices and cultured at air-media interface in serum-free medium (DMEM/F12, B27, pen/strep) for 8-12 days. Tissue viability was measured by Cell Titer Blue assay (Promega, Madison, Wis.) at 2-4 days intervals. DMSO or drugs were added after each viability reading.

[6] = test system: SMO-M2;GFAP-cre mice; assay: Kaplan-Meier survival of SMO-M2;GFAP-cre mice, intraperitoneal injection; assay type: in vivo, mouse; settings: IP injection, versus vehicle (DMSO), N=8 each group

C=Cc1c(C)c2cc3nc(cc4[nH]c(cc5nc(cc1[nH]2)C(C)=C5CCC(=O)O)c(CCC(=O)OC)c4C)[C@@]1(C)C3=CC=C(C(=O)OC)[C@H]1C(=O)OC [Verteporfin, 3-[(23 S,24R)-14-ethenyl-5-(3-methoxy-3-oxopropyl)-22,23-bis(methoxycarbonyl)-4,10,15,24-tetramethyl-25,26,27,28-tetraazahexacyclo[16.6.1.13,6.18,11.113,16.019,24]octacosa-1,3,5,7,9,11(27),12,14,16,18(25), 19,21-dodecaen-9-yl]propanoic acid]
cell morphology ([1]; 24 hours post-VP treatment, listed as VP): significant morphology change; also recorded: morphological changes consistent with apoptosis | proliferation ([1]; upon VP treatment): reduced proliferation | YAP:TEAD binding [2]: inhibit YAP:TEAD binding | suppression of self-renewal ([3]; 0.1 μM): ~50% | self-renewal (in words) ([3]; 100 nM): suppressed self-renewal | self-renewal (in words) ([3]; 1 μM): completely suppressed self-renewal | suppression of self-renewal [3]: 100% | solubility (in words) [4]: poor solubility | Buffer (pH = 2) result ([4]; phosphate buffer pH = 2): insoluble | Water result ([4]; water, at the amount per volume in mg/mL): insoluble | response of tumor tissue explants grown as intact slices [5]: significant response | survival [6]: increase survival
